Data taken from PubChem BioAssay (NCI).
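At the GI50, growth is halved. At the TGI there is no net growth.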

Experiments:
Assay in all cases: DTP human tumour cell line panel, 384-well format
SF-539 CNS = test system: SF-539 CNS
IGROV1 ovarian = test system: IGROV1 ovarian
COLO 205 colon = test system: COLO 205 colon
HL-60(TB) leukemia = test system: HL-60(TB) leukemia
KM12 colon = test system: KM12 colon
UO-31 renal = test system: UO-31 renal
NCI-H226 lung = test system: NCI-H226 lung
SNB-19 CNS = test system: SNB-19 CNS
HCC-2998 colon = test system: HCC-2998 colon
OVCAR-8 ovarian = test system: OVCAR-8 ovarian
NCI-H522 lung = test system: NCI-H522 lung
BT-549 breast = test system: BT-549 breast
786-0 renal = test system: 786-0 renal

In the case of C/C=C1\NC(=O)[C@H]2CSSCCC=C[C@H](CC(=O)N[C@H](C(C)C)C(=O)N2)OC(=O)[C@H](C(C)C)NC1=O, the GI50 (SF-539 CNS) is reported as less than 10 nM, the TGI (SF-539 CNS) is reported as less than 10 nM and the GI50 (IGROV1 ovarian) is reported as less than 10 nM. The TGI (IGROV1 ovarian) was less than 10 nM, the GI50 (COLO 205 colon) was less than 10 nM and the TGI (COLO 205 colon) was less than 10 nM. The GI50 (HL-60(TB) leukemia) was less than 10 nM, the TGI (HL-60(TB) leukemia) was less than 10 nM and the GI50 (KM12 colon) was less than 10 nM. The TGI (KM12 colon) was less than 10 nM, the GI50 (UO-31 renal) was 43.6 nM and the TGI (UO-31 renal) was 159 nM. It also gave a GI50 (NCI-H226 lung) of less than 10 nM, a TGI (NCI-H226 lung) of 19.2 nM and a GI50 (SNB-19 CNS) of less than 10 nM. The TGI (SNB-19 CNS) was less than 10 nM, the GI50 (HCC-2998 colon) was less than 10 nM and the TGI (HCC-2998 colon) was less than 10 nM. For the same compound, the GI50 (OVCAR-8 ovarian) was less than 10 nM, the TGI (OVCAR-8 ovarian) was less than 10 nM and the GI50 (NCI-H522 lung) was less than 10 nM. It also gave a TGI (NCI-H522 lung) of less than 10 nM, a GI50 (BT-549 breast) of less than 10 nM and a TGI (BT-549 breast) of less than 10 nM. The GI50 (786-0 renal) was less than 10 nM and the TGI (786-0 renal) was less than 14.9 nM.
